Reference: US5013546A, “Methods for modulating antibody production in treating patients with AIDS, ARC and other diseases” (Imreg, Inc., priority 1990, dated 1991)

Key:
[1] = test system: patients with AIDS or ARC with elevated IgG and IgA; test: AIDS/ARC patients, effect of amplifier on serum Ig levels; format: in vivo, human; conditions: 50 pg biweekly, protocol of Example 10
Description: A group of 14 patients with AIDS or ARC were treated biweekly with a standard dosage of IMREG-1 (Beta-1.0), until six doses were given. All 14 initially had elevated IgG production and 13 also had elevated IgA production.
Data was averaged for the 14 high-IgG and 13 high-IgA patients.
A group of patients with AIDS or ARC are treated biweekly with 50 pg of ZB-4, according to the protocol of Example 10.
A group of patients with AIDS or ARC are treated biweekly with 50 pg of Beta-1.11, according to the protocol of Example 10.
A group of patients with AIDS or ARC are treated biweekly with 50 pg of Beta-1.12, according to the protocol of Example 10.

[2] = per 1 fg of the peptide; cited from earlier work
[3] = test system: immunoglobulin-producing cells (plaque forming cells) in pokeweed mitogen-exposed PBLs; test: RHPFC assay, PWM-stimulated PBLs of a normal subject cultured 6 days with amplifier; format: cell-based, human; conditions: averaged data
Description: In order to ascertain whether modulation of B-cell response is appropriate in a particular subject, and to titrate administration of amplifier appropriately for that subject, it is desirable to have a method for assaying the subject's immunoglobulin response. The method described below cultures mitogen-exposed cells in the presence and absence of added amplifier. Then the formation of plaque forming cells (PFCs) is assayed by a reverse hemolytic assay to determine whether and to what extent amplifier modulates formation of PFCs. A dose-dependent amplifier modulation of PFC formation is observed. The PFC assay described hereinafter is a modification of a conventional technique; it is believed that PFC assays have not hitherto been utilized to assess effects of the immunomodulators described herein.
Peripheral blood cell populations (hereinafter PBLs) from test subjects are prepared to isolate mononuclear cells, using conventional methods. The PBLs are adjusted to 10^6 cells/ml in RPM-1640 medium with 25 mM HEPES and L-glutamine (Whittaker Bioproducts), which has been supplemented with 10% heat-inactivated defined fetal bovine serum (Hy-Clone Labs.), 2% PSN Antibiotic (GIBCO Labs., Grand Island, N.Y.) (100×), and 1% extra L-glutamine (GIBCO Labs.) (100×). The resulting PBL mixture is set aside in an ice bucket (4° C.). […]

[4] = test system: immunoglobulin-producing cells (plaque forming cells) in PWM-activated PBLs; test: Modified RHPFC assay, amplifier added after B cells were potentiated (7th day); format: cell-based, human; conditions: amplifier added after potentiation
Description: The foregoing protocol 1 was then altered to test the in vitro effect of adding amplifiers Beta-1.0 or Beta-1.11 to the culture after B cells had already been potentiated (differentiated). Therefore, no amplifier was mixed with the PWM-activated cells at the outset, as in Example 1. Instead, at the stage where 1.12% agarose and Protein A-SRBC reagent are added (here, the 7th day), 25 ul of different amplifier dilutions is also added to the various replicates. The protocol was otherwise the same.
The procedure of Example 6 was repeated with the modified protocol just described.

[5] = test system: patient with AIDS or ARC, excessive immunoglobulin production; test: Titration of amplifier dosage, AIDS or ARC patient with elevated serum IgG; format: in vivo, human; conditions: 20 to 80 pg intradermal biweekly for eight weeks, 80 kg patient; before greater than 1400 mg/dl
Description: A patient suffers from AIDS or ARC, and they have an elevated serum immunoglobulin (IgG) level (greater than 1400 mg/dl), indicative to the attending physician of excessive immunoglobulin production. The physician considers it therapeutically desirable to lower the patient's level of immunoglobulin production.
The physician assays the patient's immunoglobulin response by the protocol of Examples 1-4, or alternative as in Example using ZB-4 (Beta-1.11). The patient weighs 80 kg. The physician therefore administers intradermal injections of 20 to 80 pg of ZB-4 (0.25 to 1 pg/kg of body weight) in sterile saline, biweekly, for eight weeks, and then retests. (The appropriate amount is determined by trial and error, and is subject to the physician's discretion. It is believed that 0.25 pg/kg is an appropriate starting point for such trial and error determination in the case of excessive Ig production.)

[6] = test system: patient with common variable immunodeficiency, insufficient immunoglobulin production; test: Titration of amplifier dosage, patient with common variable immunodeficiency; format: in vivo, human; conditions: 20 to 80 pg intradermal biweekly for eight weeks, 80 kg patient; before 350 ml/dl
Description: A patient suffers from common variable immunodeficiency, and they have an lowered serum immunoglobulin (IgG) level ([…]), indicative to the attending physician of insufficient immunoglobulin production. The physician considers it therapeutically desirable to raise the patient's level of immunoglobulin production.
The patient weighs 80 kg. The physician therefore administers intradermal injections of 20 to 80 pg of ZB-4 (0.25 to 1 pg/kg of body weight) in sterile saline, biweekly, for eight weeks, and then retests. (The appropriate amount is determined by trial and error, and is subject to the physician's discretion. It is believed that 1 pg/kg is an appropriate starting point for such trial and error determination in the case of insufficient Ig production.)

| Substance | effect on Ig levels [1] | amount of Beta-1.0 with approximately the same immunological activity as 1 fg [2] | maximum PFC factor relative to control ([3]; at 100 to 150 pM) | minimum PFC factor relative to control ([3]; between 1 and 10 pM) | concentration at maximum PFC factor [4] [pM] | maximum PFC factor relative to control [4] | minimum PFC factor [4] | serum immunoglobulin (IgG) level after treatment [5] [mg/dL] | serum immunoglobulin level (IgG) after treatment [6] [mg/dL] |
| --- | --- | --- | --- | --- | --- | --- | --- | --- | --- |
| Tyr-Gly-Gly [Beta-1.12] | Substantially the same results are observed as were observed in Example 10 | 5-10 fg |  |  |  |  |  |  |  |
| Tyr-Gly [ZB-4] | Substantially the same results are observed as were observed in Example 10 | 5-10 fg | from about half again to double the control PFC factor | from about a quarter to a half the control PFC factor | 300 to 400 | slightly less than the control | approximately 35 % of the control PFC factor | 1280 | 710 |
